In general, melting point refers to the temperature, or range, at which the solid turns liquid.

Drawing on patent US7423159B2, “Agent for preventing or treating neuropathy” (Takeda Pharmaceutical Company Limited, priority 2002, dated 2008), this text covers melting point for 37 molecules.

Bounds are passed on as bounds.

The molecule `CC(=O)N(C)Cc1ccc(NC(=O)/C=C/c2cnn(C)c2-c2ccc(F)cc2)cc1` [Example 117, (2E)-N-(4-{[Acetyl(methyl)amino]methyl}phenyl)-3-[5-(4-fluorophenyl)-1-methyl-1H-pyrazol-4-yl]acrylamide] showed a melting point of 192 to 193 °C.

With `CCOP(=O)(Cc1ccc(NC(=O)/C=C/c2cnn(C)c2-c2cccc(Cl)c2)cc1)OCC`, the melting point is 214 to 216 °C.

Turning to `Cn1ncc(/C=C/C(=O)Nc2ccc(CC(C)(C)O)cc2)c1-c1ccc(F)cc1` [Example 114, (2E)-3-[5-(4-Fluorophenyl)-1-methyl-1H-pyrazol-4-yl]-N-[4-(2-hydroxy-2-methylpropyl)phenyl]acrylamide], the melting point lay within 188 to 189 °C.

With `CC(C)C(=O)NCc1ccc(NC(=O)/C=C/c2cnn(C)c2-c2ccc(F)cc2)cc1` [Example 139, (2E)-3-[5-(4-Fluorophenyl)-1-methyl-1H-pyrazol-4-yl]-N-{4-[(isobutyrylamino)methyl]phenyl}acrylamide], the melting point was in the range of 258 to 259 °C.

Turning to `COc1ccc(-c2c(/C=C\C(=O)Nc3ccc(CP(=O)(OC)OC)cc3)cnn2C)cc1`, the melting point lay in the range of 172 to 173 °C.

`COP(=O)(Cc1ccc(NC(=O)/C=C/c2cnn(C)c2-c2cccc3ccccc23)cc1)OC` showed a melting point of 207 to 209 °C.

In the case of `Cn1ncc(/C=C/C(=O)Nc2ccc(CN3C(=O)CNC3=O)cc2)c1-c1ccc(F)cc1` [Example 157, (2E)-N-{4-[(2,5-Dioxo-1-imidazolidinyl)methyl]phenyl}-3-[5-(4-fluorophenyl)-1-methyl-1H-pyrazol-4-yl]acrylamide], the melting point is 249 to 250 °C.

As for `COC(=O)c1ccc(NC(=O)CCc2cnn(-c3ccccc3)c2-c2ccccc2)cc1` [Example 82, N-[4-(Methoxycarbonyl)phenyl]-3-(1,5-diphenyl-1H-pyrazol-4-yl)propionamide], the melting point lay within 196 to 197 °C.

`CCOP(=O)(Cc1ccc(NC(=O)/C=C/c2cnn(C)c2-c2ccccc2F)cc1)OCC` came in with a melting point of 238 to 240 °C.

The molecule `Cn1ncc(/C=C/C(=O)Nc2ccc3c(c2)oc(=O)n3C)c1-c1ccc(F)cc1` [Example 122, (2E)-3-[5-(4-Fluorophenyl)-1-methyl-1H-pyrazol-4-yl]-N-(3-methyl-2-oxo-2,3-dihydro-1,3-benzoxazol-6-yl)acrylamide] showed a melting point of 265 to 266 °C.

The molecule `CCOP(=O)(Cc1ccc(NC(=O)/C=C/c2cnn(C)c2-c2ccc(F)cc2)c(C)c1)OCC` gave a melting point of 154 to 155 °C.

In the case of `CCOP(=O)(Cc1ccc(NC(=O)/C=C/c2cnn(C)c2-c2ccc(C(F)(F)F)cc2)cc1)OCC`, the melting point lay in the range of 200 to 201 °C.

As to `Cn1ncc(/C=C/C(=O)Nc2ccc(CO)cc2)c1-c1ccc(F)cc1` [Example 153, (2E)-3-[5-(4-Fluorophenyl)-1-methyl-1H-pyrazol-4-yl]-N-[4-(hydroxymethyl)phenyl]acrylamide], the melting point was in the range of 117 to 118 °C.

For the molecule `Cn1ncc(/C=C/C(=O)Nc2ccc(CN3C(=O)CCCC3=O)cc2)c1-c1ccc(F)cc1` [Example 158, (2E)-N-{4-[(2,6-Dioxo-1-piperidinyl)methyl]phenyl}-3-[5-(4-fluorophenyl)-1-methyl-1H-pyrazol-4-yl]acrylamide], the melting point was in the range of 218 to 220 °C.

As to `Cn1ncc(/C=C/C(=O)Nc2ccc(Cn3ccnn3)cc2)c1-c1ccc(F)cc1` [Example 194, (2E)-3-[5-(4-Fluorophenyl)-1-methyl-1H-pyrazol-4-yl]-N-[4-(1H-1,2,3-triazol-1-ylmethyl)phenyl]acrylamide], the melting point was 252 to 253 °C.

Molecule `Cn1ncc(/C=C/C(=O)Nc2ccc(-n3cccn3)cc2)c1-c1ccc(F)cc1` [Example 197, (2E)-3-[5-(4-Fluorophenyl)-1-methyl-1H-pyrazol-4-yl]-N-[4-(1H-pyrazol-1-yl)phenyl]acrylamide] returned a melting point of 200 to 201 °C.

Turning to `Cn1ncc(/C=C/C(=O)Nc2ccc(C(O)c3ccccc3)cc2)c1-c1ccc(F)cc1` (stereo not shown) [Example 174, (2E)-3-[5-(4-Fluorophenyl)-1-methyl-1H-pyrazol-4-yl]-N-{4-[hydroxy(phenyl)methyl]phenyl}acrylamide], the melting point lay in the range of 192 to 195 °C.

`CCc1nccn1Cc1ccc(NC(=O)/C=C/c2cnn(C)c2-c2ccc(F)cc2)cc1` [Example 191, (2E)-N-{4-[(2-Ethyl-1H-imidazol-1-yl)methyl]phenyl}-3-[5-(4-fluorophenyl)-1-methyl-1H-pyrazol-4-yl]acrylamide]: the melting point lay in the range of 237 to 238 °C.

As for `Cc1nc(Cc2ccc(NC(=O)/C=C/c3cnn(C)c3-c3ccc(F)cc3)cc2)no1` [Example 116, (2E)-3-[5-(4-Fluorophenyl)-1-methyl-1H-pyrazol-4-yl]-N-{4-[(5-methyl-1,2,4-oxadiazol-3-yl)methyl]phenyl}acrylamide], the melting point lay within 183 to 184 °C.

As for `Cn1ncc(/C=C/C(=O)Nc2ccc3[nH]c(=O)oc3c2)c1-c1ccc(F)cc1` [Example 106, (2E)-3-[5-(4-Fluorophenyl)-1-methyl-1H-pyrazol-4-yl]-N-(2-oxo-2,3-dihydro-1,3-benzoxazol-6-yl)acrylamide], the melting point is over 300 °C.

With `Cn1nnnc1[S+]([O-])Cc1ccc(NC(=O)/C=C/c2cnn(C)c2-c2ccc(F)cc2)cc1` (stereo not shown) [Example 220, (2E)-3-[5-(4-Fluorophenyl)-1-methyl-1H-pyrazol-4-yl]-N-(4-{[(1-methyl-1H-tetrazol-5-yl)sulfinyl]methyl}phenyl)acrylamide], the melting point was 179 to 183 °C.

`Cc1nc(Cc2ccc(NC(=O)/C=C/c3cnn(C)c3-c3ccc(F)cc3)cc2)cs1` [Example 100, (2E)-3-[5-(4-Fluorophenyl)-1-methyl-1H-pyrazol-4-yl]-N-{4-[(2-methyl-1,3-thiazol-4-yl)methyl]phenyl}acrylamide] came in with a melting point of 192 to 193 °C.

For the molecule `Cn1ncc(/C=C/C(=O)Nc2ccc(Cn3nnc4ccccc43)cc2)c1-c1ccc(F)cc1` [Example 177, (2E)-N-[4-(1H-1,2,3-Benzotriazol-1-ylmethyl)phenyl]-3-[5-(4-fluorophenyl)-1-methyl-1H-pyrazol-4-yl]acrylamide], the melting point is 226 to 227 °C.

`CCc1csc(Cc2ccc(NC(=O)/C=C/c3cnn(C)c3-c3ccc(F)cc3)cc2)n1` [Example 125, (2E)-N-{4-[(4-ethyl-1,3-thiazol-2-yl)methyl]phenyl}-3-[5-(4-fluorophenyl)-1-methyl-1H-pyrazol-4-yl]acrylamide] had a melting point of 211 to 212 °C.

In the case of `Cn1ncc(/C=C/C(=O)Nc2ccc(CCO)cc2)c1-c1ccc(F)cc1` [Example 167, (2E)-3-[5-(4-Fluorophenyl)-1-methyl-1H-pyrazol-4-yl]-N-[4-(2-hydroxyethyl)phenyl]acrylamide], the melting point is 198 to 200 °C.

The molecule `Cn1ncc(/C=C/C(=O)Nc2ccc(CCn3ccnc3)cc2)c1-c1ccc(F)cc1` [Example 187, (2E)-3-{5-(4-Fluorophenyl)-1-methyl-1H-pyrazol-4-yl}-N-{4-[2-(1H-imidazol-1-yl)ethyl]phenyl}acrylamide] gave a melting point of 160 to 162 °C.

For the molecule `CCc1nc(COc2ccc(NC(=O)/C=C/c3cnn(C)c3-c3ccc(F)cc3)cc2)cs1` [Example 93, (2E)-N-{4-[(2-Ethyl-1,3-thiazol-4-yl)methoxy]phenyl}-3-[5-(4-fluorophenyl)-1-methyl-1H-pyrazol-4-yl]acrylamide], the melting point lay in the range of 98 to 99 °C.

In turn, `Cn1ncc(/C=C/C(=O)Nc2ccc(Cn3ccnc3CO)cc2)c1-c1ccc(F)cc1` [Example 200, (2E)-3-[5-(4-Fluorophenyl)-1-methyl-1H-pyrazol-4-yl]-N-(4-{[2-(hydroxymethyl)-1H-imidazol-1-yl]methyl}phenyl)acrylamide] yielded a melting point of 229 to 230 °C.

`Cn1ncc(/C=C/C(=O)Nc2ccc(CS(=O)(=O)C(C)(C)C)cc2)c1-c1ccc(F)cc1` [Example 224, (2E)-N-{4-[(tert-Butylsulfonyl)methyl]phenyl}-3-[5-(4-fluorophenyl)-1-methyl-1H-pyrazol-4-yl]acrylamide] yielded a melting point of 260 to 261 °C.

The molecule `CCCc1nnc(Cc2ccc(NC(=O)/C=C/c3cnn(C)c3-c3ccc(F)cc3)cc2)o1` [Example 85, (2E)-3-[5-(4-fluorophenyl)-1-methyl-1H-pyrazol-4-yl]-N-{4-[(5-propyl-1,3,4-oxadiazol-2-yl)methyl]phenyl}acrylamide] had a melting point of 154 to 155 °C.

`CCOP(=O)(OCC)c1ccc(NC(=O)/C=C/c2cnn(C)c2-c2ccc(F)cc2)cc1` returned a melting point of 174 to 176 °C.

As for `Cc1nc2ccccc2n1Cc1ccc(NC(=O)/C=C/c2cnn(C)c2-c2ccc(F)cc2)cc1` [Example 173, (2E)-3-[5-(4-Fluorophenyl)-1-methyl-1H-pyrazol-4-yl]-N-{4-[(2-methyl-1H-benzimidazol-1-yl)methyl]phenyl}acrylamide], the melting point lay within 263 to 264 °C.

Take `Cn1ncc(/C=C/C(=O)Nc2ccc(Cc3nn(C)c(=O)o3)cc2)c1-c1ccc(F)cc1` [Example 119, (2E)-3-[5-(4-Fluorophenyl)-1-methyl-1H-pyrazol-4-yl]-N-{4-[(4-methyl-5-oxo-4,5-dihydro-1,3,4-oxadiazol-2-yl)methyl]phenyl}acrylamide]: the melting point lay in the range of 200 to 201 °C.

In the case of `Cn1ncc(/C=C/C(=O)Nc2ccc(CC(C)(C)C)cc2)c1-c1ccc(F)cc1` [Example 105, (2E)-3-[5-(4-Fluorophenyl)-1-methyl-1H-pyrazol-4-yl]-N-(4-neopentylphenyl)acrylamide], the melting point was in the range of 150 to 151 °C.

On to `Cn1nnnc1S(=O)(=O)Cc1ccc(NC(=O)/C=C/c2cnn(C)c2-c2ccc(F)cc2)cc1` [Example 226, (2E)-3-(5-(4-Fluorophenyl)-1-methyl-1H-pyrazol-4-yl]-N-(4-{[(1-methyl-1H-tetrazol-5-yl)sulfonyl]methyl}phenyl)acrylamide], for which the melting point is 224 to 225 °C.

Take `COP(=O)(Cc1ccc(NC(=O)/C=C/c2c(C)nn(C)c2-c2ccc(F)cc2)cc1)OC`: the melting point was 195 to 198 °C.

On to `Cn1ncc(/C=C/C(=O)Nc2ccc(S(N)(=O)=O)cc2)c1-c1ccc(F)cc1` [Example 181, (2E)-N-[4-(Aminosulfonyl)phenyl]-3-[5-(4-fluorophenyl)-1-methyl-1H-pyrazol-4-yl]acrylamide], for which the melting point is 300 to 305 °C (dec.).
